According to patent publication US20220387457A1 (Qlaris Bio, Inc., priority 2020, published 2022):

Assays:
[1] = biological target: T1, human Kir6.2/SUR2B KATP channel (Homo sapiens, UniProt O60706); assay: FLIPR membrane potential assay in HEK-Kir6.2/SUR2B cells; assay type: cell-based
T1 construct: expressed in transfected cells
Description: The ability of CKLP1 and the active moiety of CKLP1, leveromakalim, to pharmacologically modulate the function of the human ATP-sensitive potassium channel comprised of Kir6.2 (encoded by the human gene KCNJ11) coupled to the sulfonylurea receptor SUR2B (encoded by the human gene ABCC9) was studied.
Compounds were dissolved up to 10 mM stock solution in DMSO. Ten-point concentration response curves were generated at 100× concentration in 100% DMSO. Compound source plates were made by serially diluting 10 mM compound stocks in DMSO to generate a progressive semilog dilution schema. Dose response stock plate (10 μL) were then transferred into assay plates containing 90 μL of assay buffer, generating 10× working concentrations. Final assay test concentration ranges of 100 μM to 0.003 μM with a final DMSO concentration of 1.0%.
Human embryonic kidney (HEK) cells stably expressing human Kir6.2/SUR2B KATP channel subunits were plated onto 96 well, black poly-d-lysine (PDL)-coated microplates and maintained in growth media the day prior to use for experiments. Media was removed from the plates and 90 μL of 1× stock of the membrane potential sensitive fluorescent dye FMP-Blue resuspended in assay buffer (EBSS—in mM: NaCl 145, KCl 2, Glucose 5, CaCl2) 1.8, MgCl2 0.8, HEPES 10, pH 7.4 with NaOH, 290-300 mOSm) was added to the cells. Cells were incubated at room temperature, protected from light, for 45-60 minutes. After the incubation period, cell, test compound and glibenclamide plates were loaded onto the fluorescence plate reader (FLIPR-TETRA™) and the scanning initiated. The FLIPR measured a 10 second baseline and then added 10 μL of 10× the final desired concentration of test agent. Changes in fluorescence were monitored for an additional 5 minutes. After the 5-minute compound incubation, 10 μL of the receptor inhibitor glibenclamide was added to the cell plate (10 uM final glibenclamide concentration). Changes in fluorescence was then monitored for an additional 5 minutes.
Compound modulation of Kir6.2/SUR2B KATP channel mediated changes in cellular membrane potential was determined as follows. After the administration of compound, FMP fluorescence was monitored for a 5-minute period. The following parameters were recorded and exported from the FLIPR: the average relative fluorescence response (RFU) of 5 images taken at the 5-minute point in the assay with the average background EBSS buffer response subtracted. […] Test agent effect was calculated as % activation using the following formula: […]
Curve fits were performed in GraphPad Prism graphing software using a 4-parameter, variable slope fit equation.

[2] = Plasma pharmacokinetics of CKLP1 and levcromakalim after topical dosing in hound dogs; assay type: in vivo, hound dog
Description: To assess the pharmacokinetic parameters, hound dogs (n=3) were treated with 50 μL topical ocular administration of 10 mM CKLP1 or vehicle (PBS) (n=2) in both eyes, once daily for eight days. Blood (approximately 3 mL) was collected in heparin blood collection tubes at eight different time points (5 minutes, 15 minutes, 30 minutes, 60 minutes, 2 hours, 4 hours, 8 hours and 24 hours) following treatment on days 1, 4 and 8. Plasma was separated from the blood by centrifugation at 2000 rpm for 5 minutes.
Immediately prior to analysis, tissues were thawed and their weight was measured. PBS was added at double the tissue volume homogenized in a rotor stator homogenizer for 30 seconds. […] Detection was accomplished using positive electrospray ionization with multiple-reaction monitoring (MRM). […] Data were acquired and analyzed using Waters MassLynx v4.1 software.

[3] = Plasma pharmacokinetics, 28-day topical ophthalmic dosing in beagle dogs; conditions: beagle, dog, in vivo
Description: In the study, dogs (3 males and 3 females) received bilateral daily topical administration of 40 μL/eye of 2.0%, 4.0%, or 8.0% as measured in mg/mL (equivalent to 0.8, 1.6, or 3.2 mg CKLP1 per eye) of CKLP1 in phosphate buffered saline. Based on an average male dog weight of 7.9 kg at the start of the study, these doses were equivalent to 0.20 mg/kg, 0.41 mg/kg, or 0.81 mg/kg and based on an average female dog weight of 6.0 kg at the start of the study, these doses were equivalent to 0.27 mg/kg, 0.53 mg/kg, or 1.07 mg/kg. Blood was collected for toxicokinetic analysis pre-dose and at 1, 2, 4, 8, 12, and 24 hours post dosing on days 1 and 28. In addition, 2 animals of each gender were allowed 336 hours (14 days) of recovery time following the final dose, at which point final blood samples were obtained.

[4] = hound, dog, plasma, topical or ocular, 10 mM CKLP1, 50 µL in each of both eyes, levcromakalim after topical 10 mM CKLP1 once daily, Day 1
[5] = hound, dog, plasma, topical or ocular, 10 mM CKLP1, 50 µL in each of both eyes, levcromakalim after topical 10 mM CKLP1 once daily, Day 4
[6] = hound, dog, plasma, topical or ocular, 10 mM CKLP1, 50 µL in each of both eyes, levcromakalim after topical 10 mM CKLP1 once daily, Day 8
[7] = levcromakalim after topical 10 mM CKLP1 once daily, Day 1
[8] = levcromakalim after topical 10 mM CKLP1 once daily, Day 4
[9] = levcromakalim after topical 10 mM CKLP1 once daily, Day 8
[10] = female, topical or ocular, 3.2 mg
[11] = male, topical or ocular, 1.6 mg

T1 sequence (O60706 1-1549 isoform O60706-2): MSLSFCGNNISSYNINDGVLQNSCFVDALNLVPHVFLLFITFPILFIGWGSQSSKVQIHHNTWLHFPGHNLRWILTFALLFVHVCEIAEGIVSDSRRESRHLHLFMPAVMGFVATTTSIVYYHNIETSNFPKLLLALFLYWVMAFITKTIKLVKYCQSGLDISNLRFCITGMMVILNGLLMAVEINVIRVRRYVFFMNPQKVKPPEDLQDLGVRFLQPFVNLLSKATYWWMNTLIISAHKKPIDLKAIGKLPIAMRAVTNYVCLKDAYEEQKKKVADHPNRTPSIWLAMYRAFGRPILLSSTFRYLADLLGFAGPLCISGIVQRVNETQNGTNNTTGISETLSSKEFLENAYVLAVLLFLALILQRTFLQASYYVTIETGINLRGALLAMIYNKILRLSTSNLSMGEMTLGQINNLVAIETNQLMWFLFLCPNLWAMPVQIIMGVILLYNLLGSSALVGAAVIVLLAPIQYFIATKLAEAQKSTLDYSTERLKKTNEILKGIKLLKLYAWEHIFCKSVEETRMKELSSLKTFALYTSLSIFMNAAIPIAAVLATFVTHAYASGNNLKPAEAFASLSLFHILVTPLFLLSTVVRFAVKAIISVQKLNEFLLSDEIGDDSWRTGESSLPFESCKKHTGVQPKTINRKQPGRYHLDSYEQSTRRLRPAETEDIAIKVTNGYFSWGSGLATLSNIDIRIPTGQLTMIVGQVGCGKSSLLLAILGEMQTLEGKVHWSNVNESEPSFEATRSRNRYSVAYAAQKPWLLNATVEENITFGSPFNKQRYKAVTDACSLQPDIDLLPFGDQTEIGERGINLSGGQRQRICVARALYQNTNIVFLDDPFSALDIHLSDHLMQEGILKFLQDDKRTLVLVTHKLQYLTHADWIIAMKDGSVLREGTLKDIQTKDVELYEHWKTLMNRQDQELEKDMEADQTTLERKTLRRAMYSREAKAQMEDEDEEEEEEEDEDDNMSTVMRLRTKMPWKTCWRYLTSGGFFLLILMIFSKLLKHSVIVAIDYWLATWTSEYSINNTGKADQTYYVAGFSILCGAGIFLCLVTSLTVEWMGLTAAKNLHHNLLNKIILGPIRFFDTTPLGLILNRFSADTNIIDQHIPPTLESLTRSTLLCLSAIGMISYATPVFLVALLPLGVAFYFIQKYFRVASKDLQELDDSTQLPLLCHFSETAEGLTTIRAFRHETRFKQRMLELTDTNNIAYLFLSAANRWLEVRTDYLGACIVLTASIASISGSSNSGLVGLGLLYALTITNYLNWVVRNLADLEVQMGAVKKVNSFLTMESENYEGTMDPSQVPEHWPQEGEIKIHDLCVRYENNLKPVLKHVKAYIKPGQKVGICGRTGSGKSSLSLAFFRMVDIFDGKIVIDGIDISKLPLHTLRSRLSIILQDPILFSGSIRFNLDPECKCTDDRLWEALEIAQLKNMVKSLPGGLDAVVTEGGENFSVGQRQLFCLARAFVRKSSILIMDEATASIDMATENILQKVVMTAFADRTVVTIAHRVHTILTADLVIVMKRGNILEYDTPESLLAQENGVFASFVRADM
T1 sequence (Q14654 whole entry partner): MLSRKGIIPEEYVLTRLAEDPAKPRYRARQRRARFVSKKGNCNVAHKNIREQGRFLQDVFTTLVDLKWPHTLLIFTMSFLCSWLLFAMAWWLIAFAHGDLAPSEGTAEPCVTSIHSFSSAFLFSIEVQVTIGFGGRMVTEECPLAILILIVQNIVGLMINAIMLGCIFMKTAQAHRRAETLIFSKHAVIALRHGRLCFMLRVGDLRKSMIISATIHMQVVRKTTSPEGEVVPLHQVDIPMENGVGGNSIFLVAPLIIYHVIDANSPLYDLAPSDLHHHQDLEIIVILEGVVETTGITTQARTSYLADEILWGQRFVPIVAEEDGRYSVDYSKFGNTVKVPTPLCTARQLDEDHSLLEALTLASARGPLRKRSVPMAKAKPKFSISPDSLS

**Q.** Which “hyperpolarization reversed by coadministration of glibenclamide” value ([1]; glibenclamide 10 μM) does the source give for `CC1(C)Oc2ccc(C#N)cc2[C@@H](N2CCCC2=O)[C@@H]1O` [Levcromakalim, levcromakalim, reference compound] here?
**A.** reversed

**Q.** What about the “hyperpolarization / activation of Kir6.2/SUR2B KATP channels” value ([1]; up to 100 μM) of the same compound?
**A.** concentration-dependent hyperpolarization

**Q.** What about the “Maximum concentration of levcromakalim in plasma” value ([2]; after topical 10 mM CKLP1) of the same compound?
**A.** 1.2 ± 0.2 ng/mL

**Q.** What about the “concentration of levcromakalim found in plasma” value ([2]; after topical CKLP1) of the same compound?
**A.** 1 ng/mL

**Q.** And the AUC ([2]; hound, dog, plasma, topical or ocular, 10 mM)?
**A.** 3.88 ng·h/mL

**Q.** And the AUC(0-t) [2, 4]?
**A.** 5.09 ng·h/mL

**Q.** What about the Cmax [2, 4] of the same compound?
**A.** 1.3 ng/mL

**Q.** And the Tmax ([2]; hound, dog, plasma, topical or ocular, 10 mM CKLP1, 50 µL in each of both eyes, levcromakalim after topical 10 mM CKLP1 once daily, Day 1, read-out: Tmax (converted))?
**A.** 2 h

**Q.** And the AUC(0-t) [2, 5]?
**A.** 6.3 ng·h/mL

**Q.** What about the Cmax [2, 5] of the same compound?
**A.** 1.4 ng/mL

**Q.** What about the Tmax ([2]; hound, dog, plasma, topical or ocular, 10 mM CKLP1, 50 µL in each of both eyes, levcromakalim after topical 10 mM CKLP1 once daily, Day 4, read-out: Tmax (converted)) of the same compound?
**A.** 2 h

**Q.** What about the AUC(0-t) [2, 6] of the same compound?
**A.** 2.67 ng·h/mL

**Q.** What about the Cmax [2, 6] of the same compound?
**A.** 1 ng/mL

**Q.** And the Tmax ([2]; hound, dog, plasma, topical or ocular, 10 mM CKLP1, 50 µL in each of both eyes, levcromakalim after topical 10 mM CKLP1 once daily, Day 8, read-out: Tmax (converted))?
**A.** 2 h

**Q.** What about the half-life ([2]; hound, dog, plasma, topical or ocular, 10 mM, levcromakalim after topical 10 mM CKLP1 once daily, Day 1) of the same compound?
**A.** 1.24 h

**Q.** What about the half-life ([2]; hound, dog, plasma, topical or ocular, 10 mM, levcromakalim after topical 10 mM CKLP1 once daily, Day 4) of the same compound?
**A.** 1.46 h

**Q.** And the half-life ([2]; hound, dog, plasma, topical or ocular, 10 mM, levcromakalim after topical 10 mM CKLP1 once daily, Day 8)?
**A.** 2.11 h

**Q.** What about the Tmax ([2]; hound, dog, plasma, topical or ocular, 10 mM, time of maximum concentration (Tmax) of levcromakalim, after topical 10 mM CKLP1) of the same compound?
**A.** ~2 h

**Q.** What about the half-life ([2]; hound, dog, plasma, topical, 10 mM, as stated in the summary) of the same compound?
**A.** 2 h

**Q.** What about the Clast [2, 7] of the same compound?
**A.** 0.1 ng/mL

**Q.** What about the Tlast [2, 7] of the same compound?
**A.** 480 min

**Q.** What about the Clast [2, 8] of the same compound?
**A.** 0.1 ng/mL

**Q.** What about the Tlast [2, 8] of the same compound?
**A.** 480 min

**Q.** What about the Clast [2, 9] of the same compound?
**A.** 0.5 ng/mL

**Q.** What about the Tlast [2, 9] of the same compound?
**A.** 240 min

**Q.** And the half-life ([3]; mean T1/2 of levcromakalim)?
**A.** 2.06 to 4.9 h

**Q.** What about the half-life ([3]; terminal elimination half-life) of the same compound?
**A.** 2 to 5 h

**Q.** What about the concentration at 336 h ([3]; both sexes) of the same compound?
**A.** < 0.499 ng/mL

**Q.** What about the AUC(0-inf) ([3]; female, topical or ocular, 0.27 mg/kg) of the same compound?
**A.** 96.8 ng·h/mL

**Q.** And the AUC(0-inf) [3, 10]?
**A.** 304 ng·h/mL

**Q.** What about the t1/2 [3, 10] of the same compound?
**A.** 2.73 h

**Q.** And the half-life ([3]; female, topical or ocular, 3.2 mg, t1/2)?
**A.** 4.9 h

**Q.** And the AUC(0-inf) ([3]; female, topical or ocular, […])?
**A.** 131 ng·h/mL

**Q.** What about the AUC(0-inf) ([3]; male, topical or ocular) of the same compound?
**A.** 111 ng·h/mL

**Q.** What about the AUC(0-inf) [3, 11] of the same compound?
**A.** 185 ng·h/mL

**Q.** And the Tmax [3, 11]?
**A.** 4 h

**Q.** What about the AUC(0-inf) ([3]; male, topical or ocular, 3.2 mg) of the same compound?
**A.** 371 ng·h/mL
